Our source for the RP-LC retention time values is the METLIN SMRT retention time set (Domingo-Almenara et al. 2019).

A short description of the series: gradient 5% acetonitrile 3 min, to 50% in 2 min, to 85% in 15 min, held 3 min, 100 µL/min. Particulars: column: Zorbax Extend-C18 2.1 x 50 mm; eluents: water / acetonitrile, 0.1% formic acid. The method in brief: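 Mixtures of ~100 pure standards were chromatographed on a Zorbax Extend-C18 column (2.1 × 50 mm, 1.8 μm) at 100 μL/min using water and acetonitrile, each with 0.1% formic acid. Detection used a quadrupole time-of-flight mass spectrometer in positive and negative ionization mode, and data collection spanned 3 months. Retention time was obtained from adduct peaks picked computationally and each checked manually.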
With `Cc1ccc(C(=O)N2[C@H]3CC[C@@H]2c2cnc(-c4ccccc4)nc2C3)cn1`, the RP-LC retention time was determined as 689 s.

Compound `Cc1nc(N2CCN(c3ccccn3)CC2)nc2c1C(=O)CC(c1cccs1)C2` (centres undefined) returned an RP-LC retention time of 732 s.

For `COc1ccc(C(=O)Nc2cc(OC)nc(OC)n2)cc1`, the RP-LC retention time was found to be 798 s. As for `N#Cc1cccc(-c2cn3c(n2)N(C(=O)c2ccoc2)CCC3)c1`, the figure is 644 s. The compound `CCC(C)NC(=O)CCn1c(=O)c2ccccc2n2c(=O)n(Cc3cccc(F)c3)nc12` (centres undefined) returned an RP-LC retention time of 816 s. As for `COc1ccc(C2(CNC(=O)C(=O)Nc3ccccc3Cl)CCCC2)cc1`, the figure is 1300 s. As for `COc1ccc(C2CCN(S(C)(=O)=O)CC2)cc1`, the figure is 845 s; as for `Cc1cc(-c2nnc3sc(COc4ccc(C(C)(C)C)cc4)nn23)n[nH]1`, 967 s; as for `CCc1nc2cc(N3CCC(C(=O)NCc4ccccn4)CC3)cnc2nc1CC`, 601 s. Compound `Cc1ccccc1C(=O)Nc1nc(-c2ccc3c(c2)N(C)C(=O)C(C)O3)cs1` (centres undefined) gave an RP-LC retention time of 1010 s.

On to `CCc1ccc(N2CC(c3noc(-c4cc(OC)cc(OC)c4)n3)CC2=O)cc1` (centres undefined), for which the RP-LC retention time turned out to be 1100 s. On to `Cc1cc(C)n(Cc2nc(-c3ccc(NC(=O)c4ccc(C#N)cc4)cc3)oc2C)n1`, for which the RP-LC retention time was determined as 870 s. In the case of `CCN1CCn2cc(S(=O)(=O)Nc3ccc(F)cc3Cl)cc2C1=O`, the RP-LC retention time was 736 s. In the case of `CCn1cc(-c2nc(C)c(C(=O)NCc3ccncc3)s2)c2cccnc21`, the RP-LC retention time came to 616 s.

The compound `Cc1ccc(C(=O)NCCN2CCCC2)cc1NC(=O)C1=CSCCO1` gave an RP-LC retention time of 592 s. `COC(=O)c1cccc(NC(=O)NC(C(=O)N2CCc3ccccc32)C(C)C)c1` (centres undefined) displayed an RP-LC retention time of 610 s. As for `CC(=O)Nc1cc(C(=O)NCCC2=CCCCC2)c2ccc(C)nc2c1`, the figure is 652 s; as for `Cc1nc(CCNS(=O)(=O)Cc2cccc(Cl)c2)no1`, 792 s; as for `C=CC(=O)Nc1ccc2ncnc(Nc3ccc(OCc4cccc(F)c4)c(Cl)c3)c2c1`, 825 s. As for `Cn1cnc2c(=O)oc3ccc(S(=O)(=O)N4CCN(c5ccccn5)CC4)cc3c21`, the figure is 576 s. As for `COCCOC(=O)C1=C(C)NC2=C(C(=O)C(C(=O)OC)C(C)C2)C1c1ccccc1F` (centres undefined), the figure is 806 s; as for `CN(C)S(=O)(=O)c1ccc2c(c1)N(CC(=O)NCCCc1ccccc1)C(=O)C1CCCCN21` (centres undefined), 955 s; as for `COc1ccc(Cl)cc1S(=O)(=O)N1CCCC(C(=O)Nc2ccc(C)c(C)c2)C1` (centres undefined), 1080 s. In turn, `CCOc1ccc(C2Cn3nnc(-c4nc(-c5ccccc5Cl)no4)c3CO2)cc1` (centres undefined) yielded an RP-LC retention time of 1150 s. `CC(=O)OC[C@]12CCC(C)=C[C@H]1O[C@@H]1[C@H](O)[C@@H](OC(C)=O)[C@@]2(C)[C@@]12CO2` gave an RP-LC retention time of 750 s. As for `CCN1C(=O)c2cccc3c(NC(=O)Nc4cccc(Cl)c4)ccc1c23`, the figure is 889 s; as for `C#CCN[C@@H]1CCc2ccccc21`, 613 s.

On to `Cc1ccc(C)c2c(=O)c3c([nH]c12)CCN(CC(=O)Nc1ccccc1F)C3`, for which the RP-LC retention time amounted to 641 s.

For the compound `CC(=O)Nc1cccc(C2OC(c3cc(Br)ccc3OC(C)=O)=NN2C(C)=O)c1` (centres undefined), the RP-LC retention time worked out at 828 s. As for `CCN(C(=O)c1ccc(OC)c(OC)c1)c1nc(-c2ccc(Br)cc2)cs1`, the figure is 1270 s.

Consider `O=C(C1CCN(S(=O)(=O)c2ccc(-c3noc(C4CC4)n3)cc2)CC1)N1CCCCCC1`, for which the RP-LC retention time was 1030 s. With `Cc1ccnc(SCC(=O)Nc2nc(-c3ccccc3)c(-c3ccccc3)o2)n1`, the RP-LC retention time stood at 959 s. As for `CCCN(Cc1ccsc1)C(=O)c1ccc(OC)c(OC)c1OC`, the figure is 880 s; as for `COC(=O)c1ccc(NC(=O)Cc2csc3nc(-c4ccc(OC)c(OC)c4)cn23)cc1`, 734 s.

In the case of `CCOc1cc(=O)n2c(c1C(=O)Nc1ccc(C(N)=O)cc1)CCCC2`, the RP-LC retention time is 584 s. As for `COC(=O)C1=CN(CC(=O)N2CCN(c3ccccc3)CC2)S(=O)(=O)N=C1C`, the figure is 871 s. As for `CCCn1ncc(N2CCC(C(=O)N3CCN(C(C)C)CC3)CC2)cc1=O`, the figure is 566 s; as for `COCCNC(=O)c1csc(N2CCN(c3ccc(F)cc3)CC2)n1`, 869 s; as for `CCOC(=O)c1[nH]c(C)c(CN(Cc2ccco2)C(=O)c2ccco2)c1C`, 902 s. The compound `O=C(Cc1nnc2cc(-c3nc(C4CC4)no3)ccn12)NCc1ccc(Cl)cc1` registered an RP-LC retention time of 798 s.

Regarding `CCc1cc(C(=O)Nc2cccc(C)c2)nc2ccnn12`, the RP-LC retention time is 995 s. Take `Cc1c(CNCc2ccco2)c(C(=O)O)c(C)n1Cc1cccc(F)c1`: the RP-LC retention time amounted to 684 s. As for `Cc1ccc(NC(=O)Cn2c(=O)n(-c3ccccc3)c(=O)c3c2cc(C)n3C)cc1`, the figure is 827 s. As to `COC(=O)C1C(=O)C2=C(CC1C)Nc1ccccc1NC2c1ccc(Cl)cc1` (centres undefined), the RP-LC retention time was determined as 852 s. `CCNC(=O)c1ccc2c(c1)CCCN2S(=O)(=O)CC` yielded an RP-LC retention time of 709 s. `Cc1cc(C)c2c(N3CCCCC3)nc(C(=O)NCC3CCCO3)nc2n1` (centres undefined) showed an RP-LC retention time of 621 s. As for `O=S(=O)(c1cccc2cccnc12)N1CCCn2nc(-c3cccs3)cc2C1`, the figure is 900 s. As for `CCOc1ccc(-c2noc(CN3C(=O)COc4cc(C(C)(C)C)ccc43)n2)cc1`, the RP-LC retention time came to 1260 s. As for `O=C(NC1CC1)c1ccc(-c2nc3cccnc3n(C3CCCC3)c2=O)cc1`, the figure is 970 s; as for `Cc1cccc(Sc2nccnc2N2CCCC(C(=O)NCc3ccc(C)o3)C2)c1` (centres undefined), 1060 s; as for `COc1cc(C(=O)Nc2ccc(-c3cn4cccnc4n3)cc2)cc(OC)c1OC`, 634 s.

Consider `Cc1cc2c(cc1S(=O)(=O)N1CCCC1C(=O)Nc1ccc(F)c(Cl)c1)OCC(=O)N2` (centres undefined), for which the RP-LC retention time is 965 s. `Cc1ccc(C(=O)N2CCC3(CC2)NC(=O)c2cc(F)ccc2N3C)cc1` yielded an RP-LC retention time of 776 s. As for `COC(=O)c1ccc(NC(=O)C2CC(=O)N(c3ccc4c(c3)CCN4C(C)=O)C2)cc1` (centres undefined), the figure is 700 s; as for `CCC(=O)N1CCc2cc(CNC(=O)c3ccnn3C)ccc21`, 665 s. For `CS(=O)(=O)N1CCC(OC2CCN(C(=O)Nc3ccccc3F)CC2)CC1`, the RP-LC retention time came out at 703 s. As for `CSc1nc2ccc3nc(NC(=O)c4cc(C)no4)sc3c2s1`, the figure is 1010 s; as for `Cc1cc(=O)n(CC(=O)Nc2ccc(Cl)cc2)c(N2CCC(C)CC2)n1`, 758 s; as for `O=C(Nc1ccc(F)cc1)N1CCN(Cc2nc3cccnc3n2-c2ccc(F)cc2)CC1`, 624 s. The compound `O=C(Cn1nc2n(c1=O)CCCC2)N1CCN(c2ccccc2)CC1` came in with an RP-LC retention time of 638 s. As for `Cc1ccc(-n2c(C)c(C)c3c(=O)n(CC(=O)N(C)Cc4ccco4)cnc32)cc1`, the figure is 907 s. As for `COc1ccc(S(=O)(=O)N2CCCC(C(=O)Nc3ccc4c(c3)OCO4)C2)cc1C` (centres undefined), the figure is 957 s; as for `O=C(Cc1ccccc1Cl)N1CCN(c2nc(CN3CCOCC3)cs2)CC1`, 640 s; as for `CCOc1ccc(C(c2c(O)cc(C)n(CCOC)c2=O)N2CCN(c3ccccn3)CC2)cc1` (centres undefined), 728 s. As for `O=C(Cn1c(=O)c2cc(-c3cccs3)nn2c2ncccc21)Nc1ccc(Cl)cc1`, the figure is 932 s; as for `CCn1ccc2c(cc(C(=O)Nc3ccc(OC)cc3)n2C)c1=O`, 706 s; as for `CCc1cc2c(cc(C(=O)NCc3cccs3)n2C)s1`, 1010 s. Take `CN(C)CC1CCN(C(=O)NC2CCCCC2)CC1`: the RP-LC retention time worked out at 570 s.

Compound `Cc1ccc(Cl)cc1NC(=O)NCCc1cn(CC(C)C)c2ncccc12` came in with an RP-LC retention time of 946 s. As for `O=C1COc2ccc(S(=O)(=O)N3CCCC3C(=O)Nc3cccc(Cl)c3)cc2N1` (centres undefined), the figure is 835 s; as for `O=C(NCCc1ccncc1)C1CC(=O)N(c2n[nH]c3cc(Br)ccc23)C1` (centres undefined), 601 s; as for `O=C(CSc1ncccn1)N1CCc2ccccc21`, 720 s. As for `COc1ccccc1NC(=O)C1CCN(S(=O)(=O)c2ccc3[nH]c(=O)ccc3c2)CC1`, the figure is 734 s.

Regarding `CC(C)Cn1cc(S(=O)(=O)Nc2ccc(F)cc2F)c2cccnc21`, the RP-LC retention time was found to be 944 s. For the compound `CCSc1nc2ccc(NS(=O)(=O)c3cccc(Cl)c3)cc2s1`, the RP-LC retention time was 1070 s. `Cc1csc(C(=O)Nc2cccc3ccc(-n4ccnc4)nc23)c1` displayed an RP-LC retention time of 641 s. As for `COc1ccc(CNS(=O)(=O)c2ccc(-c3nnc(C4CCC4)o3)o2)cc1`, the figure is 873 s.

Consider `COc1ccc(Cl)cc1NC(=O)CCc1c(C)nn(-c2cc(N(C)C)ncn2)c1C`, for which the RP-LC retention time was determined as 940 s.

With `O=C1COc2cc(Cl)ccc2N1Cc1nc(-c2ccc(F)c(Cl)c2)no1`, the RP-LC retention time was 1190 s.
